How the values were obtained:
[1] = Absorption spectra in methanol; assay type: physicochemical; conditions: 298 K
Description: FIG. 2 is a graph of the absorption spectra of Ln(III) MC complexes (2.04·10^−5 M, Ln(III)=Gd, Nd, Yb, Er) and quinaldichydroxamic acid (quinHA) (2.42·10^−4 M) in methanol at 298 K, where the absorption spectrum of quinHA was multiplied by 16 times;
Upon deprotonation and formation of the metallacrown framework, Ln(III)[12-MC-4]2[24-MC-8], a broad absorption appears in the near-visible region with an apparent maximum at 380 nm (ε≈5.5·10^4 M^−1 cm^−1) and cutoff at 470 nm. In FIG. 2, the results are shown for the Gd(III), Nd(III), Yb(III), and Er(III).

[2] = Emission spectra and ligand energy levels (singlet, triplet, CT); assay type: physicochemical; conditions: for energy of the triplet state: determined on the 0-0 transition
Description: FIG. 3 is a graph depicting the corrected and normalized emission spectra of quinHA (10 mg/mL) under excitation at 290 in methanol at 77 K and Gd(III) MC (10 mg/mL) under excitation at 290 nm or 340 nm in methanol at 298 K and 77 K;
(§1) Luminescence data were collected on samples that were placed into 2.4 mm i.d. quartz capillaries or quartz Suprasil cells. Emission and excitation spectra were measured on a Horiba-Jobin-Yvon Fluorolog 3 spectrofluorimeter equipped with either a visible photomultiplier tube (PMT) (220-800 nm, R928P; Hamamatsu), a NIR solid-state InGaAs detector cooled to 77 K (800-1600 nm, DSS-IGA020L; Jobin-Yvon), or NIR PMTs (950-1450 nm, H10330-45; 950-1650 nm, H10330-75; Hamamatsu). All spectra were corrected for instrumental functions.
At 77 K, strong green luminescence centered at 510 nm with a weak band in the 325-460 nm range. The latter band disappeared upon enforcing a delay of 100 μs, so it can be assigned to a short-lived fluorescence while the green emission is phosphorescence. The energy of the triplet state of quinHA, determined on the 0-0 transition, can therefore be estimated as 21 000 cm−1 (476 nm).
The energy gap between ground and excited states for Gd(III) is very high and, therefore, it is impossible for the Gd(III) ion in the corresponding metallacrown complex to be sensitized with 300-400 nm excitation. It is believed that this feature can be used to determine the energy levels of the metallacrown complexes in the absence of energy transfer to the Ln(III) ion. The Gd(III) metallacrown complex was exposed to UV excitation into the ligand-based charge transfer band at 340 nm at room temperature, resulting in a weak broad-band emission with a maximum at 580-590 nm (FIG. 3). Lowering the temperature to 77 K led to a slight sharpening of the band and a shift of the maximum to 545-555 nm (FIG. 3). […] The position of the triplet state determined from the spectrum of Gd(III) metallacrown complex was the same as for quinHA within experimental error, 20 920 cm^−1 (478 nm). The position of the lowest excited singlet and the ligand-based charge transfer (CT) states were determined from the intersection of the absorption and emission (fluorescence) spectra of quinHA and Gd^3+[12-MC-4]2[24-MC-8], respectively, and found to be located at 29 850 cm^−1 (335 nm) and 21 560 cm^−1 ([…]). A proposed schematic diagram of the quinHA ligand's energy levels (singlet, triplet and CT) with respect to the energy levels of Yb(III), Nd(III) and Er(III) lanthanide ions and possible energy migration paths are shown in FIG. 4.

[3] = Luminescence lifetimes under excitation at 355 nm; assay type: physicochemical; conditions: for τobs: 298 K, excitation 355 nm; for q (inner sphere hydration number): calculated from kCH3OH and kCD3OD
Description: as §1
Luminescence lifetimes were determined under excitation at 355 nm provided by a Nd:YAG laser (YG 980; Quantel), while the signal was detected in the NIR by the aforementioned PMT (H10330-75). The output signal from the detectors was then fed to a 500 MHz bandpass digital oscilloscope (TDS 754C; Tektronix) and then transferred to a PC for treatment with Origin 8®. Luminescence lifetimes are averages of at least three independent measurements.
(§2) Luminescence spectra were recorded for the Ln(III) metallacrown complexes (Ln(III)=Yb, Nd, Er) in the solid state and in solution (CH3OH/CD3OD) using excitation at 420 nm or 370 nm.

[4] = Quantum yields in the NIR, absolute method using an integration sphere; assay type: physicochemical; conditions: 298 K, excitation 370 nm
Description: as §1
Quantum yields in the NIR were determined with a Fluorolog 3 spectrofluorimeter according to an absolute method using an integration sphere (GMP SA). Each sample was measured several times under slightly different experimental conditions. Estimated experimental error for quantum yields determination is 10%.
as §2

[5] = system: HeLa (Human Epithelial Ovarian Carcinoma) cells; assay: NIR epifluorescence microscopy on HeLa cells; assay type: cell-based
Description: The preparation of the Yb(III) Metallacrowns and the description of the NIR Epifluorescence Microscopy are applicable for both experiments.
Yb^3+[12-MC-4]2[24-MC-8] was prepared as described above, and was dissolved in DMSO at an appropriate concentration, and was used as such or was incubated with beads for incorporation therein.
NIR epifluorescence microscopy was performed with an Axio Observer Z1 fluorescence inverted microscope (Zeiss, Le Pecq, France) equipped with an EMCCD Evolve 512 photometric camera (Roper Scientific). The EMCCD Evolve 512 photometric camera was linked to a computer driving the acquisition software Axiovision (Zeiss). The inverted microscope was equipped with Zeiss objectives (immersion Plan Apochromat 63x (Numerical Aperture (NA)=1.4), Plan Neofluar 40x (NA=0.75), Plan Apochromat 20x (NA=0.8)). A Zeiss HXP-120 light source (metal halide) was used as the excitation system, and was combined with a UV cube filter unit as follows: 377 nm band pass 50 nm filter for excitation, and long pass 805 nm filter for Yb(III) emission in the NIR range. […]
NIR Epifluorescence Microscopy was used to observe the treated cells after 24 hours of incubation with Yb^3+[12-MC-4]2[24-MC-8] and the untreated cells. […] As illustrated in both FIGS. 8E and 8F, the emission in the NIR range for the untreated HeLa cells was not detected. […]

[6] = excitation 290 nm, 77 K, methanol
[7] = intersection of absorption and emission spectra

Row | energy of the triplet state [2] | τobs ([3]; CD3OD, 0.1 mg/mL) | τobs ([3]; CD3OD, 1 mg/mL) | τobs ([3]; CH3OH, 0.1 mg/mL) | q (inner sphere hydration number) ([3]; CH3OH, 0.1 mg/mL) | τobs ([3]; CH3OH, 1 mg/mL) | q (inner sphere hydration number) ([3]; CH3OH, 1 mg/mL) | τobs ([3]; Solid) | QLn/%L (quantum yield) ([4]; CD3OD, 0.1 mg/mL) | QLn/%L (quantum yield) ([4]; CD3OD, 1 mg/mL) | QLn/%L (quantum yield) ([4]; CH3OH, 0.1 mg/mL) | QLn/%L (quantum yield) ([4]; CH3OH, 1 mg/mL) | QLn/%L (quantum yield) ([4]; Solid) | Molecule | further results
1 | 21 000 cm^−1 | – | – | – | – | – | – | – | – | – | – | – | – | O=C(NO)c1ccc2ccccc2n1 [quinHA, quinaldichydroxamic acid] | long wavelength absorption cutoff [1]: 340 nm; green luminescence (phosphorescence) centre [2, 6]: 510 nm; weak band (short-lived fluorescence) [2, 6]: 325-460 nm; emission upon UV excitation ([2]; excitation 290 nm, room temperature, methanol): did not display any detectable emission; position of the lowest excited singlet state [2, 7]: 29 850 cm^−1; melting point: 146 to 148 °C
2 | – | 4.00(1) μs | 4.11(3) μs | 1.16(1) μs | 0 | 1.16(1) μs | 0 | 1.79(2) μs | 1.38(1) % | 1.35(1) % | 0.40(1) % | 0.38(1) % | 1.13(4) % | NdZn16(quinHA)16(OTf)3 [Nd(III)MC] | –
3 | – | – | 11.40(3) μs | – | – | 1.25(1) μs | – | 5.73(2) μs | – | 3.60(6) · 10^−2% | – | 9.9(3) · 10^−4% | 4.2(1) · 10^−2% | ErZn16(quinHA)16(OTf)3 [Er(III)MC] | –
4 | 20 920 cm^−1 | – | – | – | – | – | – | – | – | – | – | – | – | GdZn16(quinHA)16(OTf)3 [Gd(III) metallacrown complex] | emission maximum ([2]; 77 K, time delay of 100 μs): 510 nm; emission maximum ([2]; excitation 340 nm, 77 K): 545-555 nm; emission maximum ([2]; excitation 340 nm, room temperature, weak broad-band emission): 580-590 nm; position of the ligand-based charge transfer (CT) state [2, 7]: 21 560 cm^−1
5 | – | 144.6(5) μs | 150.7(2) μs | 15.14(4) μs | 0 | 14.88(1) μs | 0 | 47.8(4) μs | 2.91(7) % | 2.88(2) % | 0.27(1) % | 0.25(1) % | 2.44(4) % | YbZn16(quinHA)16(OTf)3 [Yb(III)MC] | emission in the NIR range of treated cells ([5]; Experiment 1: 1 μM, 24 hours, λex=377 nm, long pass 805 nm, 500 ms exposure): unambiguously detected; Yb(III) emission in the NIR range of treated cells ([5]; both experiments (1 μM 24 h; 5 μM 11-12 h), short exposure times): unambiguously detected
